{
  "source": "patent US10597433B2",
  "about": "“Peptides and combination of peptides for use in immunotherapy against small cell lung cancer and other cancers” (Immatics Biotechnologies GmbH, priority 2015, dated 2020)",
  "key": {"CD8+ T cells": {"system": "CD8+ T cells", "assay": "In vitro T-cell priming assay with aAPCs loaded with peptide/MHC complexes and anti-CD28 antibody, pMHC multimer readout", "type": "cell-based, human", "settings": "for Wells positive [%]: HLA-A*02 restricted peptides, CD8+ T cells of healthy donors, Table 10B; for wells (in vitro immunogenicity, positive wells): CD8+ T cells of healthy HLA-A*02 donors, Table 10A", "source_text": "In order to obtain information regarding the immunogenicity of the TUMAPs of the present invention, the inventors performed investigations using an in vitro T-cell priming assay based on repeated stimulations of CD8+ T cells with artificial antigen presenting cells (aAPCs) loaded with peptide/MHC complexes and anti-CD28 antibody.\nIn order to perform in vitro stimulations by artificial antigen presenting cells loaded with peptide-MHC complex (pMHC) and anti-CD28 antibody, the inventors first isolated CD8+ T cells from fresh HLA-A*02 leukapheresis products via positive selection using CD8 microbeads (Miltenyi Biotec, Bergisch-Gladbach, Germany) of healthy donors obtained from the University clinics Mannheim, Germany, after informed consent.\nPBMCs and isolated CD8+ lymphocytes were incubated in T-cell medium (TCM) until use consisting of RPMI-Glutamax (Invitrogen, Karlsruhe, Germany) supplemented with 10% heat inactivated human AB serum (PAN-Biotech, Aidenbach, Germany), 100 U/ml Penicillin/100 μg/ml Streptomycin (Cambrex, Cologne, Germany), 1 mM sodium pyruvate (CC Pro, Oberdorla, Germany), 20 μg/ml Gentamycin (Cambrex). 2.5 ng/ml IL-7 (PromoCell, Heidelberg, Germany) and 10 U/ml IL-2 (Novartis Pharma, Nürnberg, Germany) were also added to the TCM at this step.\nGeneration of pMHC/anti-CD28 coated beads, T-cell stimulations and readout was performed in a highly defined in vitro system using four different pMHC molecules per stimulation condition and 8 different pMHC molecules per readout condition.\nThe purified co-stimulatory mouse IgG2a anti human CD28 Ab9.3 (Jung et al., 1987) was chemically biotinylated using Sulfo-N-hydroxysuccinimidobiotin as recommended by the manufacturer (Perbio, Bonn, Germany). Beads used were 5.6 μm diameter streptavidin coated polystyrene particles (Bangs Laboratories, Ill., USA).\n800.000 beads/200 μl were coated in 96-well plates in the presence of 4×12.5 ng different biotin-pMHC, washed and 600 ng biotin anti-CD28 were added subsequently in a volume of 200 μl. Stimulations were initiated in 96-well plates by co-incubating […] CD8+ T cells with 2×10^5 washed coated beads in 200 μl TCM supplemented with 5 ng/ml IL-12 (PromoCell) for 3 days at 37° C. Half of the medium was then exchanged by fresh TCM supplemented with 80 Uml IL-2 and incubating was continued for 4 days at 37° C. This stimulation cycle was performed for a total of three times. For the pMHC multimer readout using 8 different pMHC molecules per condition, a two-dimensional combinatorial coding approach was used as previously described (Andersen et al., 2012) with minor modifications encompassing coupling to 5 different fluorochromes. Finally, multimeric analyses were performed by staining the cells with Live/dead near IR dye (Invitrogen, Karlsruhe, Germany), CD8-FITC antibody clone SK1 (BD, Heidelberg, Germany) and fluorescent pMHC multimers. For analysis, a BD LSRII SORP cytometer equipped with appropriate lasers and filters was used. Peptide specific cells were calculated as percentage of total CD8+ cells. Evaluation of multimeric analysis was done using the FlowJo software (Tree Star, Oreg., USA). In vitro priming of specific multimer+ CD8+ lymphocytes was detected by comparing to negative control stimulations."}, "HLA-A*02:01": {"molecular_target": "HLA-A*02:01 (Homo sapiens, UniProt P04439, D140Y/D185E/D98H/E176V/E277Q/G131W/G231S/I119V/I121R/I166T/I218V/L300P/L318F/N151K/N90K/P208A/P217A/Q86G/Q94H/R138H/R169H/T345S)", "assay": "MHC binding assay: UV-ligand exchange with ELISA detection of β2m of stabilized MHC complexes", "settings": "binding to HLA-A*02:01", "source_text": "Candidate peptides for T cell based therapies according to the present invention were further tested for their MHC binding capacity (affinity). The individual peptide-MHC complexes were produced by UV-ligand exchange, where a UV-sensitive peptide is cleaved upon UV-irradiation, and exchanged with the peptide of interest as analyzed. Only peptide candidates that can effectively bind and stabilize the peptide-receptive MHC molecules prevent dissociation of the MHC complexes. To determine the yield of the exchange reaction, an ELISA was performed based on the detection of the light chain (β2m) of stabilized MHC complexes. The assay was performed as generally described in Rodenko et al. (Rodenko et al., 2006).\n96 well MAXISorp plates (NUNC) were coated over night with 2 μg/ml streptavidin in PBS at room temperature, washed 4× and blocked for 1 h at 37° C. in 2% BSA containing blocking buffer. Refolded HLA-A*02:01/MLA-001 monomers served as standards, covering the range of 15-500 ng/ml. Peptide-MHC monomers of the UV-exchange reaction were diluted 100 fold in blocking buffer. Samples were incubated for 1 h at 37° C., washed four times, incubated with 2 μg/ml HRP conjugated anti-β2m for 1 h at 37° C., washed again and detected with TMB solution that is stopped with […]. Absorption was measured at 450 nm. Candidate peptides that show a high exchange yield (preferably higher than 50%, most preferred higher than 75%) are generally preferred for a generation and production of antibodies or fragments thereof, and/or T cell receptors or fragments thereof, as they show sufficient avidity to the MHC molecules and prevent dissociation of the MHC complexes."}},
  "data": [
    {"substance": "2 (VMFNFPDQATV; listed as Homo sapiens) [compound 2]", "values": [
      {"measurement": "Wells positive [%]", "setting": "CD8+ T cells", "result": "+ (<20% = +)"},
      {"measurement": "Peptide exchange (MHC class I binding score, peptide exchange yield)", "setting": "HLA-A*02:01", "result": "+++ (≥50 = +++)"}
    ]},
    {"substance": "4 (GLLDPGMLVNI; listed as Homo sapiens) [compound 4]", "values": [
      {"measurement": "Wells positive [%]", "setting": "CD8+ T cells", "result": "++ (20%-49% = ++)"},
      {"measurement": "Peptide exchange (MHC class I binding score, peptide exchange yield)", "setting": "HLA-A*02:01", "result": "+++ (≥50 = +++)"}
    ]},
    {"substance": "6 (SIMDYVVFV; listed as Homo sapiens) [compound 6]", "values": [
      {"measurement": "Wells positive [%]", "setting": "CD8+ T cells", "result": "+ (<20% = +)"},
      {"measurement": "Peptide exchange (MHC class I binding score, peptide exchange yield)", "setting": "HLA-A*02:01", "result": "++++ (≥75% = ++++)"}
    ]},
    {"substance": "11 (KLFAIPILL; listed as Homo sapiens) [compound 11]", "values": [
      {"measurement": "Wells positive [%]", "setting": "CD8+ T cells", "result": "++++ (≥70 = ++++)"},
      {"measurement": "Peptide exchange (MHC class I binding score, peptide exchange yield)", "setting": "HLA-A*02:01", "result": "+++ (≥50 = +++)"}
    ]},
    {"substance": "39 (GLDPTQFRV; listed as Homo sapiens) [compound 39]", "values": [
      {"measurement": "Wells positive [%]", "setting": "CD8+ T cells", "result": "++++ (≥70 = ++++)"},
      {"measurement": "Peptide exchange (MHC class I binding score, peptide exchange yield)", "setting": "HLA-A*02:01", "result": "+++ (≥50 = +++)"}
    ]},
    {"substance": "80 (ILMDPSPEYA; listed as Homo sapiens) [compound 80]", "values": [
      {"measurement": "Wells positive [%]", "setting": "CD8+ T cells", "result": "+++ (50%-69% = +++)"},
      {"measurement": "Peptide exchange (MHC class I binding score, peptide exchange yield)", "setting": "HLA-A*02:01", "result": "+++ (≥50 = +++)"}
    ]},
    {"substance": "82 (ALSSVIKEL; listed as Homo sapiens) [compound 82]", "values": [
      {"measurement": "Wells positive [%]", "setting": "CD8+ T cells", "result": "+ (<20% = +)"},
      {"measurement": "Peptide exchange (MHC class I binding score, peptide exchange yield)", "setting": "HLA-A*02:01", "result": "+++ (≥50 = +++)"}
    ]},
    {"substance": "110 (GLTETGLYRI; listed as Homo sapiens) [compound 110]", "values": [
      {"measurement": "Wells positive [%]", "setting": "CD8+ T cells", "result": "+++ (50%-69% = +++)"},
      {"measurement": "Peptide exchange (MHC class I binding score, peptide exchange yield)", "setting": "HLA-A*02:01", "result": "+++ (≥50 = +++)"}
    ]},
    {"substance": "128 (SLAPAGVIRV; listed as Homo sapiens) [compound 128]", "values": [
      {"measurement": "wells (in vitro immunogenicity, positive wells)", "setting": "CD8+ T cells", "result": "+ (<20% = +)"}
    ]},
    {"substance": "129 (RVADYIVKV; listed as Homo sapiens) [compound 129]", "values": [
      {"measurement": "wells (in vitro immunogenicity, positive wells)", "setting": "CD8+ T cells", "result": "+ (<20% = +)"}
    ]},
    {"substance": "130 (SLYDNQITTV; listed as Homo sapiens) [compound 130]", "values": [
      {"measurement": "wells (in vitro immunogenicity, positive wells)", "setting": "CD8+ T cells", "result": "++ (20%-49% = ++)"}
    ]},
    {"substance": "132 (NLLAEIHGV; listed as Homo sapiens) [compound 132]", "values": [
      {"measurement": "wells (in vitro immunogenicity, positive wells)", "setting": "CD8+ T cells", "result": "+ (<20% = +)"}
    ]}
  ]
}
